Where “and” joins values, the source holds several entries; their conditions need not be identical. Equal values may be shown once.
What was measured:
LecA [1] = biological target: T1, LecA (Pseudomonas aeruginosa, UniProt Q05097); assay: Inhibition of LecA-AF488 binding to H1299 cells, flow cytometry; assay type: cell-based; settings: for Decrease of LecA binding to H1299 cells / IC50: 0.16 μM LecA-AF488, flow cytometry; for Inhibition of lectin binding to the cells: 7.5 μM and above, flow cytometry; for IC50: IC50 for inhibition of LecA binding to H1299 cells, N=3
T1 construct: made in house
Description: Next, we investigated the two most promising compounds H2 and L2 for their efficacy to inhibit LecA binding to H1299 human lung epithelial cells using flow cytometry and confocal microscopy. To this end, LecA was fluorescently labelled with Alexa Fluor 488 NHS ester (LecA‐AF488), incubated with varying concentrations of the inhibitors (100 nM to 10 μM) and subsequently added to the cells.
For flow cytometry analysis, inhibitors were preincubated with 0.16 μM LecA prior addition to the H1299 cells. After incubation for 30 min, fluorescence intensity was recorded at the flow cytometer. […] In contrast, 10 μM of the corresponding monovalent ligands G2 and K2 were required for 50 % inhibition (Figure S10).
H1299 cells were detached with 2 mL of 1.5 mM EDTA in PBS, 1.2 × 10^5 cells were counted and transferred to a U-bottom 96 well plate (Sarstedt AG & Co. KG, Numbrecht, Germany).
For flow cytometry assay, the optimal LecA concentration was established following a lectin titration (0.04–0.5 µM LecA-AF488) with H1299 cells. The histogram of fluorescence intensity […]
µM LecA-AF488 was used in flow cytometry experiments. LecA-AF488 was preincubated with PNPG, G2, K2, H2 or L2 in RPMI medium, for 20 min at room temperature and protected from light. The ligand-LecA solution was then added to the cells and further incubated for 30 min at 4 °C. H1299 cells were resuspended with medium in absence of lectin or inhibitor represented the negative assay control, while cells incubated only with LecA-AF488 (no inhibitor) served as the positive control. Subsequently, cells were centrifuged at 1600 × g for 3 min at 4 °C to remove unbound lectin. The samples were then washed twice with ice-cold FACS buffer (PBS (-/-) supplemented with 3% FCS (v/v)). After the last washing step, the cells were re-suspended in FACS buffer and transferred to FACS tubes (Kisker Biotech GmbH Co. KG, Steinfurt, Germany) on ice and in absence of light. The fluorescence intensity of treated cells was measured with FACS Gallios from Beckman Coulter. […]

LecA [2] = biological target: T1, LecA; assay: Isothermal titration microcalorimetry (ITC) with LecA; assay type: binding; settings: for -TΔS (supplement) / ΔS: ITC average ± s.d.; for Relative potency r.p. (ITC): compared to respective monovalent compound in each series; for ΔG, individual titration / ΔH, individual titration: LecA 35-182 µM, ligand 100 µM-1.5 mM as headed
Excerpt: Due to the high solubility of the propanamides in the pyridine series and the sulfonated ligand L2, we determined binding thermodynamics with LecA using isothermal titration microcalorimetry (ITC, Figure 3, Figures S5–S9). […] In both cases, the enthalpy of binding increased approximately twofold (I2: ΔH=−23.9±1.2 kcal mol^−1, L2: ΔH=−19.5±1.3 kcal mol^−1) compared to their monovalent analogues (G2: ΔH=−11.0±0.2 kcal mol^−1, K2: ΔH=−10.3±0.1 kcal mol^−1), while the binding entropy was increased approximately threefold (G2: −TΔS=3.8±0.2 kcal mol^−1 vs. I2: −TΔS=13.7±1.3 kcal mol^−1, K2: −TΔS=3.2±0.2 kcal mol^−1 vs. L2: −TΔS=9.4±1.3 kcal mol^−1).
Figure 3 Direct binding of selected ligands to LecA by ITC (N=3). Titration of LecA (50 μM) with divalent sulfonated ligand L2 (250 μM) is depicted. Relative potencies (r.p.) were calculated compared to respective monovalent compound in each series and […]. TEXT PRINTED IN THE PICTURE: G2: ΔG [kcal/mol]: -7.2 ± 0.1; ΔH [kcal/mol]: -11.0 ± 0.2; -TΔS [kcal/mol]: 3.8 ± 0.2; N: 1.07 ± 0.06; Kd [nM]: 5 270 ± 30; r.p.: 1 | I2: ΔG [kcal/mol]: -10.2 ± 0.2; ΔH [kcal/mol]: -23.9 ± 1.2; -TΔS [kcal/mol]: 13.7 ± 1.3; N: 0.43 ± 0.01; Kd [nM]: 35.1 ± 12.5; r.p.: 150 | J2: ΔG [kcal/mol]: -9.7 ± 0.2; ΔH [kcal/mol]: -13.5 ± 0.4; -TΔS [kcal/mol]: 3.8 ± 0.5; N: 0.61 ± 0.06; Kd [nM]: 79.5 ± 32.8; r.p.: 66 | K2: ΔG [kcal/mol]: -7.1 ± 0.1; ΔH [kcal/mol]: -10.3 ± 0.1; -TΔS [kcal/mol]: 3.2 ± 0.2; N: 1.08 ± 0.13; Kd [nM]: 6 230 ± 440; r.p.: 1 | L2: ΔG [kcal/mol]: -10.1 ± 0.1; ΔH [kcal/mol]: -19.5 ± 1.3; -TΔS [kcal/mol]: 9.4 ± 1.3; N: 0.52 ± 0.06; Kd [nM]: 39.9 ± 3.6; r.p.: 156 […]
Expression and purification of LecA as well as competitive binding by fluorescence polarization was performed as described by Joachim et al..[9] The assay was performed in TBS/Ca2+ buffer (20 mM Tris, 137 mM NaCl, 2.6 mM KCl at pH 7.4 supplemented with 1 mM […]
CaCl2) in presence of 25% DMSO. […]
Isothermal titration calorimetry was performed on an iTC200 (Malvern Panalytical) and the data were analyzed using Microcal Origin software (Malvern Panalytical). LecA (50 - 180 […]
K2 and L2 and TBS/Ca2+ buffer supplemented with 5% DMSO for I2 and J2. Steep titration slopes achieved with the divalent ligands were the result of high amount of protein present and the high binding affinity of the ligand (high ‘value of c’).[10] However, LecA protein […]
low heat released upon binding. […]

[3] = ITC average, 25 °C, TBS/Ca2+ buffer (5% DMSO for I2 and J2), N=3
[4] = Kd (ITC), ITC average, 25 °C, TBS/Ca2+ buffer
[5] = Kd, individual titration, single ITC titrations, three per ligand
[6] = single ITC titrations, three per ligand

T1 sequence (Q05097 whole entry): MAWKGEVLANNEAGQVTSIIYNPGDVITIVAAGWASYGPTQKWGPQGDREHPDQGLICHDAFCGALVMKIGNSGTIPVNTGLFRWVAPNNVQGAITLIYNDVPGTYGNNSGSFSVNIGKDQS

Compound	Decrease of LecA binding to H1299 cells (LecA [1]; 250 nM inhibitor)	Decrease of LecA binding to H1299 cells (LecA [1]; 1 μM inhibitor) [%]	Inhibition of lectin binding to the cells (LecA [1])	IC50 (LecA [1])	-TΔS (supplement) (LecA [2]; 25 °C) [kcal/mol]	ΔS (LecA [2]; 25 °C) [cal/mol/K]	N (stoichiometry) (LecA [2]; ITC average, 25 °C, N=3)	-TΔS (LecA [2]; [3]) [kcal/mol]	ΔG (LecA [2]; [3])	ΔH (LecA [2]; [3]) [kcal/mol]	Kd (LecA [2]; [4]) [nM]	Kd (LecA [2]; [5])	Relative potency r.p. (ITC) (LecA [2])	N, individual titration (LecA [2]; [6])	ΔS, individual titration (LecA [2]; [6])	ΔG, individual titration (LecA [2]; [6])	ΔH, individual titration (LecA [2]; [6])	Kd (LecA [2]; Kd (ITC), ITC average, 25 °C, TBS/Ca2+ buffer (5% DMSO for I2 and J2), N=3) [nM]
O=C(CCc1ccc(O[C@@H]2O[C@H](CO)[C@H](O)[C@H](O)[C@H]2O)cc1)Nc1ccc(OCCOc2ccc(NC(=O)CCc3ccc(O[C@@H]4O[C@H](CO)[C@H](O)[C@H](O)[C@H]4O)cc3)cn2)nc1 [Compound H2]	16%	50	complete inhibition	540 nM														
Cc1ccc(NC(=O)CCc2ccc(O[C@@H]3O[C@H](CO)[C@H](O)[C@H](O)[C@H]3O)cc2)cc1S(=O)(=O)O [Compound K2]				1900 nM and 1890 nM	3.2 ± 0.2	-10.7 ± 0.6	1.08 ± 0.13	3.2 ± 0.2	-7.1 ± 0.1 kcal/mol	-10.3 ± 0.1	6230 ± 440	6330 nM and 5650 nM and 6710 nM	1	1.25 and 1.05 and 0.94	-10.0 cal/mol/K and -11.3 cal/mol/K and -10.7 cal/mol/K	-7.1 kcal/mol (2×) and -7.2 kcal/mol	-10.3 kcal/mol and -10.1 kcal/mol and -10.4 kcal/mol	
O=C(CCc1ccc(O[C@@H]2O[C@H](CO)[C@H](O)[C@H](O)[C@H]2O)cc1)Nc1ccc(CCc2ccc(NC(=O)CCc3ccc(O[C@@H]4O[C@H](CO)[C@H](O)[C@H](O)[C@H]4O)cc3)cc2S(=O)(=O)O)c(S(=O)(=O)O)c1 [Compound L2]	more than 30%	50	complete inhibition	560 nM	9.4 ± 1.3	-31.6 ± 4.4	0.52 ± 0.06	9.4 ± 1.3	-10.1 ± 0.1 kcal/mol	-19.5 ± 1.3		44.8 nM and 38 nM and 36.8 nM	156	0.56 and 0.55 and 0.44	-27.5 cal/mol/K and -37.6 cal/mol/K and -29.6 cal/mol/K	-10.0 kcal/mol and -10.1 kcal/mol (2×)	-18.9 kcal/mol and -18.3 kcal/mol and -21.4 kcal/mol	39.9 ± 3.6
COc1ccc(NC(=O)CCc2ccc(O[C@@H]3O[C@H](CO)[C@H](O)[C@H](O)[C@H]3O)cc2)cn1 [Compound G2]				2800 nM and 2790 nM	3.8 ± 0.2	-12.8 ± 0.6	1.07 ± 0.06	3.8 ± 0.2	-7.2 ± 0.01 kcal/mol and -7.2 ± 0.1 kcal/mol	-11.0 ± 0.2	5270 ± 30	5320 nM and 5260 nM and 5240 nM	1	1.10 and 1.13 and 0.99	-12.5 cal/mol/K and -13.7 cal/mol/K and -12.3 cal/mol/K	-7.2 kcal/mol	-10.9 kcal/mol (2×) and -11.3 kcal/mol	
